Publication PMC6618152, “Abscisic acid is a substrate of the ABC transporter encoded by the durable wheat disease resistance gene Lr34” (The New Phytologist, 2019)

Columns and labels:
LR34res [1] = molecular target: T1, LR34res (Triticum aestivum, UniProt A0A9R1MFS8); test: inhibition of 3H-ABA uptake in yeast YMM12; type: cell-based; conditions: 20 min preincubation, then 10 min with labelled ABA; general ABC transporter inhibitor; allele in this panel not stated, taken as LR34res
T1 construct: gene CFC21_107174; full-length cDNA from p6U:cLr34res, C-terminal HA tag, in pNEV-N; expressed in Saccharomyces cerevisiae W303 and YMM12; predicted c; 160 kDa
T1 sequence (A0A9R1MFS8 1-1401): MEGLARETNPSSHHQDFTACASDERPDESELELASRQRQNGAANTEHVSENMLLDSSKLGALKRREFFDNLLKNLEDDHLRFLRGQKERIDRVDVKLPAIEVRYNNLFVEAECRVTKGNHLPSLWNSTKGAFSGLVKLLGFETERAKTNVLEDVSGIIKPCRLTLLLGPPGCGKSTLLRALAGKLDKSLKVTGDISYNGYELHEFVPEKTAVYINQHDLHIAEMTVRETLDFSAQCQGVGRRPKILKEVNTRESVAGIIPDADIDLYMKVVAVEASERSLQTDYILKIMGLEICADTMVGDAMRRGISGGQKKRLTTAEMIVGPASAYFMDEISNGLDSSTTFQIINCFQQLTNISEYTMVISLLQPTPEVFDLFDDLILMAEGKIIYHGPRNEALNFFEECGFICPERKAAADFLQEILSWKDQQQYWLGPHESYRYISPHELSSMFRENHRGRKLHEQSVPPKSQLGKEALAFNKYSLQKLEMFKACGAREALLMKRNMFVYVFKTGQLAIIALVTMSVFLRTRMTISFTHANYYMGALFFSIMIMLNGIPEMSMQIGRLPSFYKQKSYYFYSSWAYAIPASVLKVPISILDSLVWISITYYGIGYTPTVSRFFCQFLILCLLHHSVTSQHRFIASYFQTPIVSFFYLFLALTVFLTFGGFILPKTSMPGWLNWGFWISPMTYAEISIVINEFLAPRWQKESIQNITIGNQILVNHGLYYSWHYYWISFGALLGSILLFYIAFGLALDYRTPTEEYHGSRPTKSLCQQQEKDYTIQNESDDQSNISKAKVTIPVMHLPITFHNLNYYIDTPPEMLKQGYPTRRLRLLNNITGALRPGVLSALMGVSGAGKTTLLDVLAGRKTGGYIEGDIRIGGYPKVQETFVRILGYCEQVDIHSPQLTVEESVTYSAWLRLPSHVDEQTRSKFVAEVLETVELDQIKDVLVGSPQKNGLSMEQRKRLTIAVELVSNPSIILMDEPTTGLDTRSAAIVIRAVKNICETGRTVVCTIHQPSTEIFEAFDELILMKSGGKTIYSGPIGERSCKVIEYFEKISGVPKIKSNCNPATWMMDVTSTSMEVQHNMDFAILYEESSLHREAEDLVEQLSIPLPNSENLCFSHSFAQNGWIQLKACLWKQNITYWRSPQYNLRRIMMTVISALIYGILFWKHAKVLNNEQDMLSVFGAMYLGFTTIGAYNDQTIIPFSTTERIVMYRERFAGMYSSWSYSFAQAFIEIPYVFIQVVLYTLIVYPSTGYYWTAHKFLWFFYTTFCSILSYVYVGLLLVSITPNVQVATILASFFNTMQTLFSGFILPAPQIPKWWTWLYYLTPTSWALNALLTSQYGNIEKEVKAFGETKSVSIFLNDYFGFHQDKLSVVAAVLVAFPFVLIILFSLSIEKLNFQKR

LR34res [2] = molecular target: T1, LR34res; test: competition of 3H-ABA uptake in LR34res-expressing yeast; type: cell-based; conditions: 50 nM labelled and unlabelled ABA mixture, 10 min, pH 6.3; competition for substrate binding suggested, not proven

## COc1ccc(Cl)cc1C(=O)NCCc1ccc(S(=O)(=O)NC(=O)NC2CCCCC2)cc1 [glibenclamide]
LR34res [1]
  relative 3H-ABA accumulation (% of control): The ABC transporter inhibitor glibenclamide

## C=C[C@](C)(O)CC[C@@H]1[C@@]2(C)CCCC(C)(C)[C@@H]2CC[C@@]1(C)O [sclareol]
LR34res [2]
  % reduction of 3H-ABA uptake at 3 μM: ~ 40%
